The record followed here is patent US11278555B2, “Combinational therapies for treatment of cancer comprising a bacteriochlorophyll derivative” (Yeda Research and Development Co. Ltd., priority 2016, dated 2022).

For assay [1], the system named is s.c. 4T1-luc breast tumors. Kind of assay: WST11 VTP with or without single dose CTX in mice bearing s.c. 4T1-luc tumors in the hind leg (Scheme 4). Type of assay: in vivo, Balb/c mice. As to the method: (§1) • (i) Bacteriochlorophyll Derivatives—The Bchl derivatives and RGD-conjugates thereof were provided by Steba Biotech (Rehovot, Israel). […] Concentration was verified by spectrophotometric measurement. STL-7012 was provided as dipotassium salt. Working solution was prepared by dissolving STL-7012 K^+ salt in 5% mannitol solution (1 mg/ml). […] WST11 was supplied as a powder and kept in the dark at −20° C. Stock was prepared by dissolving WST11 in DDW containing 5% glucose and 0.67% mannitol, aliquoted and lyophilized. Working solution was reconstituted with DDW and the concentration of solution was confirmed spectrophotometrically. Alternatively, Clinical WST11 (batch: P00611, and 10-130611) was supplied as lyophilized formulation. Material was dissolved in 5% dextrose, aliquoted and stored at −20° C. […] Aliquots were thawed, diluted with saline to a desired concentration and used on the same day at a dose of 75 mg/kg. Cyclophosphamide (CTX, Endoxan®, Baxter Oncology Gmbh, Germany) was purchased from a local pharmacy. A stock solution of 20 mg/ml was prepared by dissolving in 0.9% NaCl, aliquoted and stored at −20° C. Aliquots were thawed, diluted with saline if needed to a desired concentration and used on the same day prepared at indicated doses. • (iii) Murine cell lines—Mammary luciferase (luc)-labeled 4T1 cell line (4T1-Luc) was a kind gift from Dr. Zvi Granot (Faculty of Medicine, The Hebrew University of Jerusalem, Israel); melanoma B16-F10 cell line was obtained from the American Type Culture Collection (ATCC, Manassas, Va.); bladder MB49 cell line was a kind gift from James Allison (MSKCC, New York, USA), and luc-labeled MB49-cell line was established using the murine stem cell virus (MSCV)-puromycin-luc-GFP construct (kindly provided by Dr. Emily Cheng, Human Oncology and Pathogenesis Program, MSKCC). 4T1 and MB49 cells were maintained in DMEM medium and B16-F10 cells in RPMI medium supplemented with 1 mmol/L sodium pyruvate, 10% fetal calf serum (FCS), 250 μg/ml hygromycin, 0.06 mg/ml penicillin and 0.1 mg/ml streptomycin. The cells were grown as monolayer at 37° C. in a humidified atmosphere (5% CO2, 95% air). • (iv) Murine tumor models—Female, Balb/c mice (6-8 week old) were grafted either subcutaneously (s.c.) into the right hind leg or orthotopically with 1×10^6 4T1 cells suspended in 50 or 1000 PBS. […] Whole body imaging of luciferase-transfected tumors and metastases were recorded five minutes following 75 mg Kg^−1 intraperitoneal (i.p.) injection of D-luciferin with respective filter sets. • (vi) PDT treatment protocol: 4T1-Luc cells were grafted in the mammary pad of Balb/c mice. […] Ablation of primary tumors was assessed every 7 days by imaging the tumor's luciferase-mediated bioluminescence signal, using IVIS.

Assay [2] has as its system Foxp3+ Treg, CD8+ T cells, G-MDSC/neutrophils. Type of assay: in vivo. Particulars: CTX treated vs only VTP. As to the method: as §1

For the compound `CCC1c2cc3[n-]c(c(CC(=O)OC)c4nc(cc5[n-]c(cc(n2)C1C)c(C(C)=O)c5C)C(C)C4CCC(=O)[O-])c(C(=O)NCCS(=O)(=O)[O-])c3C.[K+].[K+].[Pd+2]` (stereo not shown) [WST11, Palladium 3^1-oxo-15-methoxycarbonylmethyl-rhodobacteriochlorin 13^1-(2-sulfoethyl) amide dipotassium salt], the primary tumor growth entry in assay [1] (CTX 50 or 150 mg/kg alone, WST11 VTP at low light intensity (100 mW/cm^2) alone, or combination) is listed as “unable to suppress primary tumor growth”. The lung metastases result in assay [1] (VTP alone, even when primary tumor completely ablated) is given as “most of the mice subjected to VTP alone developed lung metastases”. In addition, in assay [1] (WST11 VTP at high light dose (150 mW/cm^2)), the “time to tumor regrowth” value was “doubled”. In assay [2], the “total cell numbers in draining lymph nodes and spleens after VTP” value was “decrease in cell counts”.
